The source of these data is US11873295B2, “Allosteric chromenone inhibitors of phosphoinositide 3-kinase (PI3K) for the treatment of disease” (Petra Pharma Corporation, priority 2021, dated 2024).

pIC50: −log10 of the molar value.

In test [1] the target is T1, human full length PIK3KA H1047R mutant (p110α/p85α complex) (Homo sapiens, UniProt P42336, H1047R).
T1 construct: Recombinant, catalytically active human full length PIK3KA Wild-type and H1047R mutant were purchased as 1:1 complex; 6xHis (N); purchased EMD Millipore Sigma 14-792M
The test is described as follows: PI3K-alpha kinase (PIK3CA) biochemical activity, H1047R mutant, ADP-Glo. Conditions: PI3K-α (PIK3CA) biochemical, H1047R mutant. The text has this: (§1) PI3K-Alpha Kinase (PIK3CA) Activity, Wild-Type and H1047R Mutant and Determining IC50 Values for Inhibitors
(§2) Recombinant, catalytically active human full length PIK3KA Wild-type and H1047R mutant were purchased as 1:1 complex of N-terminal 6× his tagged p110α (catalytic) and untagged p85α (regulatory subunit) from EMD Millipore Sigma (cat. no. 14-602M and 14-792M, respectively). PIP2diC8 (Avanti Polar Lipids Inc., cat. no. 850185) or Soy PI (Avanti Polar Lipids Inc., cat. No. 840044P) was used as lipid substrate. PIP2diC8 or PI lyophilized powder was dissolved in milliQ water to a concentration of 1 mM just before use. 10 mM stock compounds in DMSO were serially diluted 1:3 to generate a 10-point curve and plated using an acoustic liquid handler system (Echo 550 series instrument, Labcyte). A 10× intermediate compound plate (200 uM starting compound concentration and 10% DMSO) was prepared before starting the reaction. A typical reaction mixture (50 uL) comprised 40 mM HEPES buffer, pH 7.4, 25 mM MgCl2, 0.01% v/v triton-X-100, 1% v/v DMSO, 20 mM NaCl, 1-5 nM WT or H1047R PI3K protein, 20 uM ATP, and 50 uM PIP2diC8 or Soy PI. 1% DMSO buffer alone without test compound was employed as MAX control (full activity in the absence of any inhibitor), and no enzyme control was used to determine the level of background Adenosine 5′-diphosphate (ADP) (MIN control). First, Wild-type (WT) and H1047R mutant protein in kinase buffer with all components except ATP were incubated with or without compound at 27° C. for 1 h. After the pre-incubation, the reaction was initiated by the addition of 20 uL of 50 uM ATP (20 uM final concentration). The reaction was allowed to proceed until about 10% conversion of ATP (2 uM ADP) at 27° C. After that time, 5 uL of reaction was mixed with 5 uL of ADP-Kinase Glo Reagent (ADP-Glo Kinase assay kit, Promega cat. no. V9102) supplemented with MgCl2 10 mM to stop the reaction and deplete the remaining ATP for 40 min at room temperature. Then, 10 uL of Kinase Detection Reagent (ADP-Glo Kinase assay kit, Promega cat. no. V9102) was added to simultaneously convert ADP to ATP and allow the newly synthesized ATP to be measured using a luciferase/luciferin reaction. After 30 min at room temperature the light generated was measured using a luminometer (EnVision plate reader, Perkin Elmer). Process data through Genedata-Screener tool. Relative IC50 values are determined using luminescence units by calculating percent inhibition with respect to on-plate “MIN” and “MAX” controls. Data was analyzed using a 4-parameter nonlinear logistic equation (four-parameter logistic concentration-response curve): Y=bot+[(top−bot)/1+(x/IC50)slope] where Y=% inhibition, X=concentration yielding y % inhibition, Bottom=minimum value of y attained by curve, Top=maximum value of y attained by curve and Slope=steepness of curve at IC50. % Inh=[(median Max−x/median Max−median Min)]·100 IC50: concentration of compound that reduces a given response (ligand binding, enzyme response) by 50%. IC50 relative: concentration giving half the compound's maximum response.
(§3) For IC50 values shown in Table A, “A” means IC50<0.5 μM; “B” means IC50 ranging between 0.5 μM and 1.0 μM; “C” means IC50 ranging between 1 μM and 5 μM; “D” means IC50 ranging between 5 μM and 10 μM; “E” means IC50>10 μM.

Test [2] deals with T2, human full length PIK3KA Wild-type (p110α/p85α complex) (Homo sapiens, UniProt P42336).
T2 construct: Recombinant, catalytically active human full length PIK3KA Wild-type and H1047R mutant were purchased as 1:1 complex; 6xHis (N); purchased EMD Millipore Sigma 14-602M
Kind of test: PI3K-alpha kinase (PIK3CA) biochemical activity, wild-type, ADP-Glo. As to conditions: PI3K-α (PIK3CA) biochemical.
Excerpt: as §1, §2, §3

The mark [3] stands for this setting: PIP2diC8 lipid substrate (footnote 1).

T1 sequence (P42336 whole entry H1047R): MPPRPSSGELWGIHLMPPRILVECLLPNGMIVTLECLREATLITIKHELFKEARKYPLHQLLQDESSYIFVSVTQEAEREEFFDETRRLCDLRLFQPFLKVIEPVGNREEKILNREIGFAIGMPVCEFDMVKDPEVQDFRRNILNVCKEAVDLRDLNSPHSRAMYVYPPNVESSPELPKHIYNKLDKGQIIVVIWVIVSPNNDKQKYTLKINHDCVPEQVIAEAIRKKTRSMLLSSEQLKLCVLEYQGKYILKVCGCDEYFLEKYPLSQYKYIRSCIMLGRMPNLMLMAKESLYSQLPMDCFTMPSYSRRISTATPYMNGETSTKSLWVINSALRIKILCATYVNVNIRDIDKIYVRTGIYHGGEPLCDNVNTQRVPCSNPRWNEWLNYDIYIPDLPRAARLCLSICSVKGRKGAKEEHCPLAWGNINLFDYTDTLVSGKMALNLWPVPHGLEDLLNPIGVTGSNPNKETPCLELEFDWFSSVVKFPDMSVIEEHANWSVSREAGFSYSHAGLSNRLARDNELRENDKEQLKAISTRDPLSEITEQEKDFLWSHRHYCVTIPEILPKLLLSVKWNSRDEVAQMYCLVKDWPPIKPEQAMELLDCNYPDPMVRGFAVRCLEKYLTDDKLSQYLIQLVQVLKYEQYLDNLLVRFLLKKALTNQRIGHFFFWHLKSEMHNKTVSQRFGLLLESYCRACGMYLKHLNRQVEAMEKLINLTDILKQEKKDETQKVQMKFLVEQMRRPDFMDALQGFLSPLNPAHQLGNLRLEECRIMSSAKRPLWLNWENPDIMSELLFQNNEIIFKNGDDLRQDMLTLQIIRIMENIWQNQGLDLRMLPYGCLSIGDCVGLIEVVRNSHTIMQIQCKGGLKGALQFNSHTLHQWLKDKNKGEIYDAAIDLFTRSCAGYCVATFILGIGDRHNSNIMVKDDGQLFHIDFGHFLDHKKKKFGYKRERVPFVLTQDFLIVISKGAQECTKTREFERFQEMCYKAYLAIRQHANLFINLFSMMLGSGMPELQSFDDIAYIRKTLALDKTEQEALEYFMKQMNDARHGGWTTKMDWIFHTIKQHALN
T1 sequence (P27986 whole entry partner): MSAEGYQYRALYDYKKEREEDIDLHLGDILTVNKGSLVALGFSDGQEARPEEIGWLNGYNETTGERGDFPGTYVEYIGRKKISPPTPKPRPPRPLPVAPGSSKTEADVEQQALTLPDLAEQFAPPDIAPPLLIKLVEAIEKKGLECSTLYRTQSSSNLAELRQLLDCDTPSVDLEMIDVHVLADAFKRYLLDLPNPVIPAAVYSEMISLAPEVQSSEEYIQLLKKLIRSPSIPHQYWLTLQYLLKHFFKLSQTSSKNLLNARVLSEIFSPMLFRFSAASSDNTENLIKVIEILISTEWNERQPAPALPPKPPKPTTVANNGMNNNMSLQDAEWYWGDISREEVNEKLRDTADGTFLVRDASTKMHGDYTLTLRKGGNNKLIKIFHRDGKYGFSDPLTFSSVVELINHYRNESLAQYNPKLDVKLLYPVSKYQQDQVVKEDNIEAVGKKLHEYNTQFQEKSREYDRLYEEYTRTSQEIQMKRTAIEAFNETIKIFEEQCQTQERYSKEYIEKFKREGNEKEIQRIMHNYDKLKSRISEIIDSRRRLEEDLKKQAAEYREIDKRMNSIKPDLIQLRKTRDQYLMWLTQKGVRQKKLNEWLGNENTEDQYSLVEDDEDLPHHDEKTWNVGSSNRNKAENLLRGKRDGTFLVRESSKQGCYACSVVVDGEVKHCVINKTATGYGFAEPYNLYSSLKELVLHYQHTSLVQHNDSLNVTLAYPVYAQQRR

As for `Cc1cc(C(C)Nc2ccccc2C(=O)O)c2oc(-c3ccc(C(=O)N(C)C)cc3)cc(=O)c2c1` (single isomer, unassigned; isomer 1) [Example 49, 2-[1-[2-[4-(Dimethylcarbamoyl)-phenyl]-6-methyl-4-oxo-chromen-8-yl]ethylamino]benzoic acid, Isomer 1], the pIC50 in test [1] (Soy PI lipid substrate) is above 6.30; in test [2] (Soy PI lipid substrate), 5.00 to 5.30.

With `Cc1cc([C@@H](C)Nc2ccccc2C(=O)O)c2oc(-c3cccc(C(F)F)c3)cc(=O)c2c1` [Example 71, 2-[[(1R)-1-[2-[3-(Difluoromethyl)phenyl]-6-methyl-4-oxo-chromen-8-yl]ethyl]amino]benzoic acid], the pIC50 was above 6.30 in test [1] (Soy PI lipid substrate) and 5.30 to 6.00 in test [2] (Soy PI lipid substrate).

In the case of `Cc1cc(C(C)Nc2sc(C)nc2C(=O)O)c2oc(-c3ccccc3)cc(=O)c2c1` (stereo not drawn) [Example 23, 2-Methyl-5-[1-(6-methyl-4-oxo-2-phenyl-chromen-8-yl)ethylamino]-thiazole-4-carboxylic acid 2,2,2-trifluoroacetic acid], the pIC50 in test [1] (Soy PI lipid substrate) is above 6.30; in test [2] (Soy PI lipid substrate), 5.00 to 5.30.

As for `Cc1cc([C@@H](C)Nc2ccccc2C(=O)O)c2oc(-c3ccc(C#N)cc3F)cc(=O)c2c1` [Example 51, 2-[[(1R)-1-[2-(4-Cyano-2-fluoro-phenyl)-6-methyl-4-oxo-chromen-8-yl]ethyl]amino]benzoic acid 2,2,2-trifluoroacetic acid], the results for the pIC50 in test [1] (Soy PI lipid substrate) and in test [2] (Soy PI lipid substrate) were above 6.30 and 5.30 to 6.00, respectively.

For the molecule `Cc1cc([C@@H](C)Nc2ccccc2C(=O)O)c2oc(-c3ccc(C#N)cc3)cc(=O)c2c1` [Example 17, 2-[[(1R)-1-[2-(4-Cyanophenyl)-6-methyl-4-oxo-chromen-8-yl]ethyl]amino]benzoic acid], the pIC50 in test [1] (setting [3]) and in test [2] (setting [3]) was above 6.30 throughout.

`CC(Nc1ccccc1C(=O)O)c1cc(F)c(F)c2c(=O)cc(-c3ccccc3)oc12` (stereo not drawn) [Example 64, 2-[1-(5,6-Difluoro-4-oxo-2-phenyl-chromen-8-yl)ethylamino]benzoic acid 2,2,2-trifluoroacetic acid]: the pIC50 in test [1] (Soy PI lipid substrate) was above 6.30; in test [2] (Soy PI lipid substrate), below 5.00.

For `Cc1cc(C(C)Nc2ccc(Cl)nc2C(=O)O)c2oc(-c3ccccc3)c(I)c(=O)c2c1` (single isomer, unassigned; isomer i) [Example 153, 6-Chloro-3-[1-(3-iodo-6-methyl-4-oxo-2-phenyl-chromen-8-yl)ethylamino]pyridine-2-carboxylic acid, Isomer I], the pIC50 in test [1] (Soy PI lipid substrate) and in test [2] (Soy PI lipid substrate) was 5.30 to 6.00 in each case.

For `Cc1cc([C@@H](C)Nc2ccc(F)cc2C(=O)O)c2oc(-c3ccccc3)cc(=O)c2c1` [Example 20, 5-Fluoro-2-[[(1R)-1-(6-methyl-4-oxo-2-plienyl-chromen-8-yl)ethyl]amino]benzoic acid], the pIC50 in test [1] (setting [3]) and in test [2] (setting [3]) was above 6.30 in each case.

For `Cc1cc([C@@H](C)Nc2ccc(C(F)(F)F)nc2C(=O)O)c2oc(-c3ccccc3)cc(=O)c2c1` [Example 27, 3-[[(1R)-1-(6-Methyl-4-oxo-2-phenyl-chromen-8-yl)ethyl]amino]-6-(trifluoromethyl)-pyridine-2-carboxylic acid], the figures for the pIC50 in test [1] (Soy PI lipid substrate) and in test [2] (Soy PI lipid substrate) were above 6.30 and 5.30 to 6.00, respectively.

Regarding `Cc1cc(C(C)Nc2ccccc2C(=O)O)c2oc(-c3ccccc3)c(C#N)c(=O)c2c1` (single isomer, unassigned; isomer 1) [Example 61, 2-[1-(3-Cyano-6-methyl-4-oxo-2-phenyl-chromen-8-yl)ethylamino]benzoic acid, Isomer 1], the pIC50 in test [1] (Soy PI lipid substrate) and in test [2] (Soy PI lipid substrate) was below 5.00 in each case.

In the case of `Cc1cc([C@@H](C)Nc2ccc(Br)cc2C(=O)O)c2oc(-c3ccccc3)c(C)c(=O)c2c1` [Example 77, 5-Bromo-2-[[(1R)-1-(3,6-dimethyl-4-oxo-2-phenyl-chromen-8-yl)ethyl]amino]benzoic acid], the pIC50 in test [1] (Soy PI lipid substrate) was above 6.30; in test [2] (Soy PI lipid substrate) it was 5.30 to 6.00.

For the molecule `Cc1cc([C@@H](C)Nc2ccccc2C(=O)O)c2oc(-c3ccccc3F)cc(=O)c2c1` [Example 11, 2-[[(1R)-1-[2-(2-Fluorophenyl)-6-methyl-4-oxo-chromen-8-yl]ethyl]amino]benzoic acid], the values for the pIC50 in test [1] (Soy PI lipid substrate) and in test [2] (Soy PI lipid substrate) were above 6.30 and 5.30 to 6.00, respectively.

For the molecule `Cc1cc(C(C)Nc2ccccc2C(=O)O)c2oc(-c3cccc(C(C)(C)C#N)c3)cc(=O)c2c1` (stereo not drawn) [Example 3, 2-[1-[2-[3-(1-Cyano-1-methyl-ethyl)phenyl]-6-methyl-4-oxo-chromen-8-yl]ethylamino]benzoic acid 2,2,2-trifluoroacetic acid], the pIC50 was above 6.30 in test [1] (Soy PI lipid substrate) and 5.00 to 5.30 in test [2] (Soy PI lipid substrate).

With `Cc1cc(C(C)Nc2ccccc2C(=O)O)c2oc(-c3ccc(C4(C#N)CC4)cc3)cc(=O)c2c1` (stereo not drawn) [Example 7, 2-[1-[2-[4-(1-Cyanocyclopropyl)-phenyl]-6-methyl-4-oxo-chromen-8-yl]ethylamino]benzoic acid], the results for the pIC50 in test [1] (setting [3]) and in test [2] (setting [3]) were above 6.30 and 6.00 to 6.30, respectively.

On to `Cc1cc(C(C)Nc2ccccc2C(=O)O)c2oc(-c3ccccc3)c(C#N)c(=O)c2c1` (stereo not drawn) [Example 10, 2-[1-(3-Cyano-6-methyl-4-oxo-2-phenyl-chromen-8-yl)ethylamino]benzoic acid 2,2,2-trifluoroacetic acid], for which the pIC50 in test [1] (Soy PI lipid substrate) was above 6.30; in test [2] (Soy PI lipid substrate), 5.30 to 6.00.

In general, pIC50 refers to the negative decadic logarithm of the IC50, by convention in mol/L. High values mean a small IC50, low ones a large IC50.
